The record followed here is patent publication US5959145A, “Fatty acid analog enzyme substrates” (priority 1993, dated 1999).

In general, Km refers to the substrate concentration at which the rate is half of its maximum.

Series [1] is described as follows: C18 reverse phase HPLC elution of fatty acyl peptides (hydrophobicity). The format is physicochemical. As to conditions: for Elution Time: C18 reverse phase HPLC, acyl derivative of GNAAS[125I]YRR, Table 2; for elution earlier than corresponding myristoyl-peptide: C-18 reverse phase HPLC, FIG. 2. As to the method:
The fatty acid analog acyl-peptide eluted 7 minutes earlier than the corresponding myristoyl peptide. The free peptide elutes in the void volume (3-5minutes).
This difference was evident when the HPLC elution characteristics of fatty acyl peptides were examined. The elution time of a particular acyl-peptide depends strongly on the peptide sequence as well as on the acyl chain attached to that peptide. For example, the elution times of fatty acyl derivatives of GNAAAARR are (in minutes) decanoic acid, 9; dodecanoic acid, 18; myristic acid, 24; and palmitic acid, 30. Elution times for fatty acyl derivatives of GNAAS[^125 I]YRR are 23 and 28 minutes for C12 and C14 fatty acids, respectively (FIG. 2). […] Such a change could alter the biological activity of myristoyl proteins.
(§1) For these Examples, each analog synthesized is characterized by ^1 H and ^13 C NMR as well as mass spectroscopy. The analogs are then characterized kinetically as NMT substrates. Briefly, fatty acid analogs are converted to their CoA esters with Pseudomonas CoA ligase and incubated with the iodinated peptide GNAAS[^125 I]YRR and a source of NMT. […] The radiolabelled peptide is then used at concentrations which will lead to 50% enzyme saturation (i.e., at its Km) for the determination of fatty acid analog kinetic characteristics. Representative analogs with sulfur or oxygen in the backbone of the fatty acid chain serve as good substrates for NMT in vitro and will compete for incorporation of ^3 H labelled myri-state into yeast proteins in vivo. In addition, these analogs differ markedly in hydrophobicity from myri-state as measured both by C18 reverse phase HPLC elution profiles and by 2-octanol/water partition coefficients. The analog CH3 O(CH2)11 COOH, for example, partitions into water 20 fold better than myristate. It is believed that these analogs will be incorporated into mammalian acylproteins in vivo and that their incorporation into these proteins will drastically alter protein processing or targeting. It is further believed that the incorporation of fatty acid analogs of both myristate and palmitate into ester linked and phosphatidyl inositol glycan linked acylproteins will also dramatically alter their properties. Since many viral proteins and oncogenes are acylated, these compounds represent a new class of potential antiviral and antineoplastic agents.

For the next series, the target named is T1, yeast NMT (Saccharomyces cerevisiae, UniProt P14743).
T1 construct: 11,000-fold purified preparation of yeast NMT; endogenous in cells; host or cells: yeast (enzyme purified from yeast, 11,000-fold)
T1 sequence (P14743 1-455): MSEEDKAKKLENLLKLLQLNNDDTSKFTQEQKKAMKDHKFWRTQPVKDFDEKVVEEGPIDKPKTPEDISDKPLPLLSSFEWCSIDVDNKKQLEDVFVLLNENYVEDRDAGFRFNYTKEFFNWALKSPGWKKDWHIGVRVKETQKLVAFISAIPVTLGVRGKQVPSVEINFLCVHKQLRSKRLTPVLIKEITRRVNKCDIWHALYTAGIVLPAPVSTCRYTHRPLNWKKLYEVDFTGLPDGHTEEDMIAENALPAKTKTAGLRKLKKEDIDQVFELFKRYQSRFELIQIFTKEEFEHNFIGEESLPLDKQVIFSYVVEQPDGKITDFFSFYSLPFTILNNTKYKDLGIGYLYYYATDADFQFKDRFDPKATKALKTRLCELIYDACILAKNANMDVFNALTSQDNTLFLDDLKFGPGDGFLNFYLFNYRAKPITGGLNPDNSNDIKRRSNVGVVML
Briefly: kinetic characterisation of fatty acid analogs as yeast NMT substrates. The format is biochemical. The conditions noted are these: for Peptide Vm: peptide GNAAS[125I]YRR varied, fatty acid analog at 15 μM; for Peptide Vm / Acyl CoA Vm: myristate control = 100%; for Acyl CoA Vm / Km: radiolabelled peptide at its Km, analog varied; for Km: read-out: Acyl CoA Km.
Excerpt: Similar results were obtained using an 11,000-fold purified preparation of yeast NMT [Towler et al., Proc. Natl. Acad. Sci. USA 84, 2708-2712 (1987)].
Other illustrative examples of the oxy- and thio-substituted fatty acid analog substrate compounds of the invention were synthesized in Examples 6 to 14 and tested in Example 15 as substrates for the yeast NMT.
as §1

A further series deals with wheat germ NMT. The series is described as follows: in vitro myristoylation assay with partially purified wheat germ NMT. The format is biochemical. As to the method:
Myristoyl CoA and fatty acid analog CoA were generated by incubation of the fatty acid or analog with CoA, ATP and CoA ligase. This reaction mixture was added to wheat germ NMT and Gly-Asn-Ala-Ala-Ser- [^125 I]Tyr-Arg-Arg in the presence of 0.03% Triton® X-100. Reaction products were characterized by reverse phase HPLC and gamma counting.
The invention is illustrated in greater detail in the following Examples 1 to 15 by the synthesis and testing of representative compounds of the invention as myristoylating enzyme substrates. Accordingly, the invention is first illustrated in Examples 1 to 5 by the chemical synthesis of a sulfur-containing analog of myristic acid, namely 11-(ethylthio)undecanoicacid, CH3 CH2 --S--(CH2)10 COOH, which is then tested in vitro as a wheat germ NMT substrate. Wheat germ NMT is a protein similar to yeast NMT. The purity and chemical identity of the synthesized compound were examined using ^1 H and ^13 C NMR as well as mass spectroscopy. The assay that was used to characterize the substrate specificity of wheat germ NMT measures the rate of attachment of a radiolabelled fatty acid to an unlabelled peptide. The fatty acid analog synthesized was nonradioactive.
Characterization of Partially Purified Wheat Germ NMT--Assays for NMT activity were performed using a procedure detailed previously by Towler and Glaser, Proc. Natl. Acad. Sci. USA 83, 2812-2816 (1986). Briefly, the in vitro assay measures the transfer of radiolabelled fatty acid from acyl CoA to a synthetic peptide substrate. The acylpeptide product is identified by reverse phase HPLC. Time and enzyme dependence were evaluated by varying the reaction time or the enzyme concentration. […] Fatty acid specificity was examined essentially as described by Towler et al., J. Biol. Chem. 262, 1030-1036 (1987), except that the peptide Gly-Ser-Ser-Lys-Ser-Lys-Pro-Lys rather than Gly-Asn-Ala-Ala-Ala-Ala-Arg-Arg was used to compare palmitate and myristate utilization by wheat germ NMT. This was necessary because of the presence of a large, peptide-independent peak which co-eluted with a palmitoyl-Gly-Asn-Ala-Ala-Ala-Ala-Arg-Arg standard. [^3 H]Palmitate and [^3 H]myristate were used in this comparison. [^14 C]fatty acids were used to compare C-10, C-12 and C-14 chain lengths. Fatty acyl CoA concentrations in these assays were determined by a modification of the method of Hosaka et al., Methods Enzymol. 71, 325-333 (1981).
Characterization of the Fatty Acid Analog--Gly-Asn-Ala-Ala-Ser-[^125 I]Tyr-Arg-Arg as prepared in Example 2, above, was tested in an in vitro myristoylation system which was modified from that used with radiolabelled fatty acids. […] 20-fold more wheat germ NMT (480-fold purified as in Example 3, above) was used for these assays than for assays which employed [^3 H] myristate. […] Double reciprocal plots were generated for the iodinated peptide with both myristic acid and the sulfur analog by altering the peptide concentration in the presence of a constant amount of fatty acid or analog. […] The assays contained 0.03% Triton X-100 to maintain the solubility of the fatty acids.

Where [2] appears, read: CoA ester, 40 μM iodinated peptide, 0.03% Triton X-100, FIG. 1.

“Also recorded” adds a separate entry of the source. No end group written: not given here. *: point of attachment. 11‑(ethylthio)undecanoyl = CCSCCCCCCCCCCC(=O)*; 125I = [125I]*

Regarding `CCCCCCCCCCCC(=O)O` [dodecanoic acid, reference compound], the “elution time of fatty acyl derivative of GNAAAARR” value (from here on “elution time … of GNAAAARR”) in series [1] (reverse phase HPLC) was 18 min. Further, the “elution time of fatty acyl derivative of GNAAS[125I]YRR” value in series [1] (reverse phase HPLC, FIG. 2, text) worked out at 23 min.
For the compound `C#CCOCCCCCCCCCC(=O)O` [J, 10-(2-Propynoxy)decanoic acid], on yeast NMT, the “Peptide Vm” value is reported as 200%, the “Acyl CoA Vm” value came out at 320% and the Michaelis constant (Km) was 6.5 µM. In addition, the “Elution Time” value in series [1] was determined as 9 min.
In the same order, the values of `CCCCCCCCOCCCCC(=O)O` [F, 5-(octyloxy)pentanoic acid] are 335%, 675%, 1.6 µM and 16 min.
In the case of `CCCCCCCCCC(=O)O` [decanoic acid, reference compound], the “elution time … of GNAAAARR” value in series [1] (reverse phase HPLC) is 9 min.
As for `CCCCCCCCSCCCCC(=O)O` [C, 5-(Octylthio)pentanoic acid], at yeast NMT, the “Peptide Vm” value is reported as 213%, the “Acyl CoA Vm” value amounted to 160% and the Km stood at 1.5 µM. Besides, the “Elution Time” value in series [1] came to 24 min.
On the same counts, the results for `CCCOCCCCCCCCCC(=O)O` [H, 10-(Propoxy)decanoic acid] are 150%, 250%, 6.1 µM and 11 to 12 min.
In the case of `CCCCOCCCCCCCCCCC(=O)O` [Compound I, 11-(1-Butoxy)undecanoic acid], on yeast NMT, the “effectiveness as NMT substrate, in words” value is given as “less effective”; the “Peptide Vm” value is given as 25%; the “Acyl CoA Vm” value was found to be 80%; the Michaelis-Menten constant (Km) is 1 µM. In addition, the “Elution Time” value in series [1] was 19 min.
Take “11-(ethylthio)undecanoyl-GNAAS[^125 I]YRR ({11‑(ethylthio)undecanoyl}-GNAASY(125I)RR) [fatty acid analog acyl-peptide formed by NMT from compound A and iodinated peptide GNAASYRR]”: the results for the “elution earlier than corresponding myristoyl-peptide” value in series [1] and in series [1] (listed as 11-(ethylthio)undecanoyl-GNAASYRR[^125 I]) were “seven” and 7 min, respectively.
Regarding `CCOCCCCCCCCCCC(=O)O` [B, 11-(Ethoxy)undecanoic acid], on yeast NMT, the “Peptide Vm” value is 62%, the “Acyl CoA Vm” value worked out at 64% and the Km is 1.8 µM. For the same compound, the “Elution Time” value in series [1] turned out to be 12 min.
Consider `CCSCCCCCCCCCCC(=O)O` [A, 11-(Ethylthio)undecanoic acid], for which, in the series with wheat germ NMT (setting [2]), the “Km for the analog relative to myristate” value is 1.5 times higher and the “Vmax for the analog relative to myristate” value is 3.5 times higher. Further, in the series with wheat germ NMT (fatty acid or analog at 5 μM, peptide varied, read-out: Km of peptide substrate Gly-Asn-Ala-Ala-Ser-[125I]Tyr-Arg-Arg), the Km turned out to be 7 µM. Also, in the series on wheat germ NMT (in words), the “ability to act as a substrate for myristoyl CoA: protein N-myristoyl transferase (NMT)” value is on record as “leaves intact” and the “substrate quality of CoA ester for wheat germ NMT compared with myristoyl CoA” value is listed as “at least as good a substrate”. The “apparent maximal velocity relative to myristic acid” value in the series with wheat germ NMT (peptide varied, fatty acid or analog at 5 μM) was 2.3 times higher. At yeast NMT (11,000-fold purified yeast NMT), the “Km compared with C14:0 fatty acid” value is given as “indistinguishable” and the “Vmax compared with C14:0 fatty acid” value is reported as “indistinguishable”. On yeast NMT, the “Peptide Vm” value came out at 98%, the “Acyl CoA Vm” value was 130% and the Km was 1.4 µM. Also, in series [1], the “hydrophobicity compared with myristic acid, in words” value is given as “decreases its hydrophobicity; also recorded: significantly different” and the “Elution Time” value was found to be 18 min.
In the case of `CCCCCCCCCCCCCCCC(=O)O` [palmitic acid, reference compound], the “elution time … of GNAAAARR” value in series [1] (reverse phase HPLC) was found to be 30 min.
With `COCCCCCCCCCCC(=O)O` [D, 11-(Methoxy)undecanoic acid], at yeast NMT, the “Peptide Vm” value was found to be 232%, the “Acyl CoA Vm” value was 163% and the Km was 6.9 µM. In series [1], the “Elution Time” value was in the range of 12 to 13 min.
As to `CCCSCCCCCCCCCC(=O)O` [G, 10-(Propylthio)decanoic acid], on yeast NMT, the “Peptide Vm” value came to 245%, the “Acyl CoA Vm” value is given as 250% and the Michaelis-Menten constant (Km) amounted to 1.5 µM. In series [1], the “Elution Time” value was found to be 18 min.
